Measured values published in patent US11390621B2, “Chiral indole compounds and their use” (ARIAGEN, INC., priority 2019, dated 2022).
Several values for one entry are separate records, joined by “and”; a condition that tells them apart may be missing. Equal entries are not always repeated.

Columns and labels:
Type in all cases: in vitro ADME
[1] = Hepatocyte intrinsic clearance assay (metabolic stability), human hepatocytes; settings: male, human, cryopreserved pooled hepatocytes, Human Hepatocytes, 1 μM test compound
Text: (§1) The liver is an important organ in the body for drug metabolism. This Example describes hepatocyte intrinsic clearance assays using both human and rat hepatocytes to evaluate the metabolic stability of the indole compounds disclosed herein. The parameters measured include t1/2 (half-life), CLint (intrinsic clearance), and EH (hepatic extraction ratio).
(§2) Testosterone (Lot FE111011-01) was obtained from Cerilliant (Round Rock, Tex.). 7-hydroxycoumarin (Lot 11631ED) was obtained from Sigma Aldrich (St. Louis, Mo.). Cryopreserved human hepatocytes pooled from ten donor males (X008001), cryopreserved male IRC/CD-1 mouse hepatocytes (M005052), INVITROGRO HI Medium (incubation), and INVITROGRO HT Medium (thawing) were obtained from Bioreclamation IVT (Baltimore, Md.). All solvents were obtained from commercial sources and used without further purification.
(§3) Each test compound was prepared as a 1 mM stock solution in DMSO. A 2 μM solution of test compound and positive controls were prepared in INVITROGRO HI Medium (incubation). These solutions were pre-warmed in a sterile incubator set to maintain 37° C., 5% CO2, and 98% humidity. Cryopreserved hepatocytes were prepared at a concentration of 2×10^6 living cells/mL in incubation media and pre-warmed in the incubator. The compound solutions and hepatocyte mixtures were then combined at a ratio of 1:1 (v:v). The final volume of the reaction mixture was 750 μL, containing 1 μM test compound (10 μM for 7-hydroxycoumarin) and […]. The reaction mixture was placed in the incubator on a plate shaker. After 0, 15, 30, 60, 90, and 120 minutes of incubation, 100 μL of reaction mixtures were removed from the incubation plate and mixed with 150 μL of ice-cold acetonitrile in a designated well of a 96-well crash plate. The 96-well crash plate was placed on ice for 15 min, and samples were centrifuged (3,600 RPM, 10 min, 4° C.) to precipitate protein. The supernatants were diluted 1:1 (v:v) with water containing 0.15 μM verapamil and/or 1 μM tolbutamide (internal standards for positive and negative modes, respectively) in a 96-well shallow injection plate. This plate was sealed for LC-MS analysis. All measurements were done in duplicate.
(§4) The residual compound remaining (% R) was determined from LC-MS peak areas by comparison to the zero time point. Metabolic half-life (t1/2) and intrinsic clearance (CLint) values were calculated from the slope of the plot of ln (% R) vs. time and the concentration of hepatocytes present in the incubation. Percent remaining at 60 minutes was calculated by plugging in the 60 minute value into the slope equation generated by the percent remaining time points.
(§5) In vivo hepatic clearance CLH was calculated using the well stirred liver model according to the following equation:
(§6) [formula] where QH is the total liver blood flow, fu is unbound fraction of the drug, and CL′int is defined as follows: CL′int=CLint×(10^6 cells/g of liver weight)×(g liver weight/kg of body weight). In the first approximation, used in this study, fu=1.
(§7) Hepatic extraction ratio EH was calculated using the following equation:
(§8) [formula] Corresponding physiological parameters used in calculations for all species are shown below in Table 3.

human hepatocytes = assay: as above; settings: Human Hepatocytes; well stirred liver model, fu=1
Text: as §1, §2, §3, §4, §5, §6, §7, §8

[2] = Hepatocyte intrinsic clearance assay (metabolic stability), rat hepatocytes; settings: rat, cryopreserved hepatocytes, Rat Hepatocytes, 1 μM test compound
Text: as §1, §2, §3, §4, §5, §6, §7, §8

rat hepatocytes = assay: as above; settings: Rat Hepatocytes; well stirred liver model, fu=1
Text: as §1, §2, §3, §4, §5, §6, §7, §8

[3] = CYP profiling: turnover in human liver microsomes, 30 min, no inhibitor; design: % Compound Metabolized at 30 min, No Inhibitor: concentration or dose not given beside the values; settings: HLMs
Method: (§9) In order to investigate the contributions of CYP1A2 and CYP3A4 to the metabolism of the compounds of the present disclosure, human liver microsomes were incubated with the test compounds for 30 minutes in the presence of selective chemical inhibitors furafylline (1A2) and ketoconazole (3A4).

CYP1A2 = target: T1, CYP1A2 (Homo sapiens, UniProt P05177); assay: CYP profiling: human liver microsomes with CYP1A2 inhibitor furafylline; design: % Compound Metabolized at 30 min, CYP1A2 Inhibitor: concentration or dose not given beside the values; settings: HLMs; for % Inhibition Relative to Negative Control, 1A2: 30 min
T1 construct: from tissue; host or cells: human liver microsomes
T1 sequence (P05177 1-516): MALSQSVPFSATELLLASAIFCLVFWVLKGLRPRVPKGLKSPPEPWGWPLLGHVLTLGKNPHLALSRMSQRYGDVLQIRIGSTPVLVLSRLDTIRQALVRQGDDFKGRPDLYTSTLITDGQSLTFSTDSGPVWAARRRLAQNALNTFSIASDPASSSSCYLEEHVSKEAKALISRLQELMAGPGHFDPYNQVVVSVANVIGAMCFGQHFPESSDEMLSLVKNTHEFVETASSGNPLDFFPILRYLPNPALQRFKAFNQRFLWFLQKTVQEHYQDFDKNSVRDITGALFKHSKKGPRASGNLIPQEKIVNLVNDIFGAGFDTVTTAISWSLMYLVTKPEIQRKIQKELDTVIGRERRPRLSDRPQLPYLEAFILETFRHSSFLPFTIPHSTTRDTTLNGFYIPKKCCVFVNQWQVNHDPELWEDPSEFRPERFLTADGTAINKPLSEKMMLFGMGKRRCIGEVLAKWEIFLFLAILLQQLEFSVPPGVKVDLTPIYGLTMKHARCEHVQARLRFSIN
Method: as §9

CYP3A4 = target: T2, CYP3A4 (Homo sapiens, UniProt P08684); assay: CYP profiling: human liver microsomes with CYP3A4 inhibitor ketoconazole; design: % Compound Metabolized at 30 min, CYP3A4 Inhibitor: concentration or dose not given beside the values; settings: HLMs; for % Inhibition Relative to Negative Control, 3A4: 30 min
T2 construct: from tissue; host or cells: human liver microsomes
T2 sequence (P08684 whole entry): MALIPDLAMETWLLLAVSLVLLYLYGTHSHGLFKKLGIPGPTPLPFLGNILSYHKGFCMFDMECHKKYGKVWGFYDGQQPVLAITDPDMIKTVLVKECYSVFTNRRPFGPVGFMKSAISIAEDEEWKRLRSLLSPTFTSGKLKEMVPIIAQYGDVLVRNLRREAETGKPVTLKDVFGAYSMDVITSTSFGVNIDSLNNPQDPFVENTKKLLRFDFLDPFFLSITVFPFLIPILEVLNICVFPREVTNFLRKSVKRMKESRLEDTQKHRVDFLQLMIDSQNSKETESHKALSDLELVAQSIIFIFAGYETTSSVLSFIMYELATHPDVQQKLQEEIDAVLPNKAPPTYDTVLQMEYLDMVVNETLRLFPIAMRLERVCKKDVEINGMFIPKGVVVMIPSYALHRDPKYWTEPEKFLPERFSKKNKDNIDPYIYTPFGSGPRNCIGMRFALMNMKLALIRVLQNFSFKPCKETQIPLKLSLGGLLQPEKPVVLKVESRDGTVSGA
Method: as §9

| Compound | half-life at 1 μM [1] | hepatocyte CLint at 1 μM [1] | EH (hepatic extraction ratio) (human hepatocytes) | half-life at 1 μM [2] | hepatocyte CLint at 1 μM [2] | EH (hepatic extraction ratio) (rat hepatocytes) | % Compound Metabolized at 30 min, No Inhibitor [3] | % Compound Metabolized at 30 min, CYP1A2 Inhibitor (CYP1A2) | % Inhibition Relative to Negative Control, 1A2 (CYP1A2) | % Compound Metabolized at 30 min, CYP3A4 Inhibitor (CYP3A4) | % Inhibition Relative to Negative Control, 3A4 (CYP3A4) |
| --- | --- | --- | --- | --- | --- | --- | --- | --- | --- | --- | --- |
| NC(c1csc(C(=O)c2c[nH]c3ccccc23)n1)C(F)(F)F (stereo not drawn) [ARI-100] | 46.1 h | 0.251 µL/min/1e6 cells | 1.9% | 1.3 h | 8.73 µL/min/1e6 cells | 36.9% | 2% | 0% | 100% | 8% | None |
| Cc1ncc2n1-c1ccc(Cl)cc1C(c1ccccc1F)=NC2 [Midazolam] |  |  |  |  |  |  | 98% and 97% | 96% | 2% | 1% and 0% | 99% and 100% |
| CCOc1ccc(NC(C)=O)cc1 [Phenacitin] |  |  |  |  |  |  | 36% and 31% | 3% and 1% | 92% and 97% | 23% | 36% |
